This note sets out measurements from patent US10278942B2 (PELOTON THERAPEUTICS, INC., priority 2015, dated 2019).

pIC50: −log10 of the molar value.

The target in one assay is T1, HIF-2α HIS TAG-PASB Domain (Homo sapiens, UniProt Q99814).
T1 construct: 100 nM HIF-2α HIS TAG-PASB Domain
T1 sequence (Q99814 240-350 limits assumed): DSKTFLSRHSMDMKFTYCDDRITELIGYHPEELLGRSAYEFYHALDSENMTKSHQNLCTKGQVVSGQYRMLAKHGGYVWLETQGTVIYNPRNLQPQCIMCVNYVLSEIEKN
In words: HIF-2α Scintillation Proximity Assay (SPA). The format is binding. The note with it: Scintillation Proximity Assay IC50 (nM). As to the method: The total assay volume was about 100 μL in the following configuration: 2 μL compound in 100% DMSO, 88 μL buffer with protein and probe and 10 μL of SPA beads. […] The percent inhibition was determined and IC50 values were calculated using the Dotmatics system based on the following equation: % inhibition=[(high control−sample)/(high control−low control)]×100.
For `O=S1(=O)c2ccc(Oc3cncc(Cl)c3)c(C(F)F)c2C(O)C1(F)F` (stereo not shown) [Compound 381], the IC50 lay within 50 to 249 nM. Take `O=S1(=O)c2ccc(Oc3cc(F)cc(Cl)c3)cc2C(O)C1(F)F` (stereo not shown) [Compound 362]: the IC50 is > 1000 nM. Still for that read-out and setting: the value for `O=S(=O)(c1ccc(Oc2cc(F)cc(Cl)c2)c(Cl)c1)C(F)(F)F` [Compound 128] was 50 to 249 nM.

The same assay, now with this note: read-out: Scintillation Proximity Assay IC50.
On to `O=S(=O)(c1ccc(OCCCO)c2c1C(O)CC2)C(F)(F)F` (stereo not shown) [Compound 611], for which the pIC50 is < 6.00. Take `CCOCC1(COc2ccc(S(=O)(=O)C(F)(F)F)c3c2CC(F)(F)[C@H]3O)COC1` [Compound 708]: the pIC50 is < 6.00. Regarding `CNCc1c(S(=O)(=O)C(F)(F)F)ccc(Oc2cc(F)cc(Cl)c2)c1Br` [Compound 109], the pIC50 was < 6.00.

In the case of `O=S(=O)(c1ccc(C2CC2)c2c1C(O)CC2)C(F)(F)F` (stereo not shown) [Compound 512], the pIC50 is < 6.00.

Take `COc1ccc(S(C)(=O)=O)c2c1CC(F)(F)[C@H]2O` [Compound 777]: the pIC50 is < 6.00.

For `O=S(=O)(c1ccc(Oc2cc(F)cc3[nH]ncc23)c2c1C(O)C(F)(F)C2)C(F)(F)F` (stereo not shown) [Compound 262], the pIC50 was < 6.00. As for `CS(=O)(=O)N1CCCC(Oc2ccc(S(=O)(=O)C(F)(F)F)c3c2CC(F)(F)C3O)C1` (stereo not shown) [Compound 628], the pIC50 is < 6.00. As for `NC1CS(=O)(=O)c2ccc(Oc3cc(F)cc(F)c3)c(C(F)F)c21` (stereo not shown) [Compound 367], the negative logarithm of the IC50 (pIC50) is < 6.00. Take `CC1(O)c2c(ccc(Oc3cc(F)cc(C#N)c3)c2C(F)F)S(=O)(=O)C1(F)F` (stereo not shown) [Compound 442]: the pIC50 was 6.60 to 7.30. Same read-out and setting: for `O=S(=O)(c1ccc(OC2CCNC2)c2c1C(O)C(F)(F)C2)C(F)(F)F` (stereo not shown) [Compound 643] the value was < 6.00; for `O=S(=O)(c1ccc(Oc2cc(F)cc(F)c2)c2c1C(CO)CC2)C(F)F` (stereo not shown) [Compound 24], 6.00 to 6.60; for `CS(=O)(=O)c1ccc(Oc2cncc(Br)c2)c2c1[C@H](O)[C@H](F)C2` [Compound 326], < 6.00. With `CN(C)C(=O)COc1ccc(S(=O)(=O)C(F)(F)F)c2c1CC(F)(F)C2O` (stereo not shown) [Compound 632], the pIC50 was < 6.00. As for `O/N=C1/c2c(C(F)(F)F)ccc(OCCCF)c2CC1(F)F` [Compound 702], the pIC50 is < 6.00. As for `CC1CC(Oc2ccc(S(=O)(=O)C(F)(F)F)c3c2CCC3O)CCO1` (stereo not shown) [Compound 624], the pIC50 is < 6.00. For the compound `N=S(=O)(c1ccc(Oc2cc(F)cc(Cl)c2)c(Br)c1)C(F)F` (stereo not shown) [Compound 69], the negative logarithm of the IC50 (pIC50) is < 6.00.

Regarding `Cc1cc(C)cc(Oc2ccc(S(=O)(=O)C(F)(F)F)cc2Br)c1` [Compound 173], the pIC50 was < 6.00.

`N=S1(=O)c2ccc(Oc3cc(F)cc(F)c3)c(Br)c2C(O)C1(F)F` (stereo not shown) [Compound 378]: the pIC50 is 6.60 to 7.30.

For the compound `OC1c2c(Br)ccc(OCC(F)F)c2CC1(F)F` (stereo not shown) [Compound 687], the pIC50 is < 6.00. As for `O=S(=O)(c1ccc(Oc2cc(F)cc(Cl)c2)c(Cl)c1CNC1CCOCC1)C(F)F` [Compound 48], the pIC50 was 6.00 to 6.60. `Cn1nccc1-c1ccc(S(=O)(=O)C(F)(F)F)c2c1CC(F)(F)[C@H]2O` [Compound 559]: the pIC50 is < 6.00. Turning to `OC1c2c(I)cc(I)c(OCC(F)F)c2CC1F` (stereo not shown) [Compound 667], the pIC50 is < 6.00. Regarding `CN(Cc1cccs1)c1ccc(S(=O)(=O)C(F)F)c2c1CC(F)(F)[C@H]2O` [Compound 530], the pIC50 is < 6.00. Still for that read-out and setting: for `O=C1Cc2ccc(-c3ccc(S(=O)(=O)C(F)(F)F)c4c3CC(F)(F)[C@H]4O)cc2N1` [Compound 567] the value was < 6.00; for `CS(=O)(=O)c1ccc(C(F)(F)CO)c2c1[C@H](O)C(F)(F)C2` [Compound 556], < 6.00. On the same count and under the same terms, for `O=[N+]([O-])c1c(Oc2cccc(Cl)c2)ccc(C(F)(F)F)c1Cl` [Compound 204] the value was 6.60 to 7.30; for `N#Cc1cc(F)cc(Oc2ccc3c(c2C#N)C(O)(C(F)(F)F)CS3(=O)=O)c1` (stereo not shown) [Compound 450], < 6.00. On to `N#Cc1cc(F)cc(Oc2ccc3c(c2CF)C(O)C(F)(F)S3(=O)=O)c1` (stereo not shown) [Compound 388], for which the pIC50 is 6.60 to 7.30.

As a reminder, the IC50 is the concentration at which inhibition is half-maximal. The term pIC50 denotes the negative decadic logarithm of the IC50, by convention in mol/L.
